Legend:
Tetrahymena pyriformis = assay: 48 h IGC50 (-log10 mol/L); higher = more toxic
Pimephales promelas = assay: 96 h LC50 (-log10 mol/L); higher = more toxic

SMILES	48 h IGC50 (-log10 mol/L) (Tetrahymena pyriformis)	96 h LC50 (-log10 mol/L) (Pimephales promelas)
Clc1nc(Cl)c(Cl)c(Cl)c1Cl	4.71	5.73
O=Cc1cccnc1	2.87	3.81
CCCCCCCCN	3.35	4.4
CCCCCc1ccccc1	4.79	4.94
NC(=O)c1ccccc1	2.09	2.26
C=CC(=O)OCC(C)O (stereo not drawn)	3.65	4.59
CCCCC(C)=O	1.66	2.37
Oc1cccc(O)c1	2.35	3.3
COC(=O)c1ccc(Cl)cc1[N+](=O)[O-]	3.82	3.9
CO	0.334	0.056
Cc1ccc(N)cc1N	2.34	1.94
c1ccc2cnncc2c1	2.66	3.11
C=CCOC(=O)C(=C)C	2.32	5.11
Nc1ccc(F)cc1C(F)(F)F	2.98	3.78
CCCCCC(=O)O	2.79	2.84
Nc1ccc(Cl)c(Cl)c1	4.37	4.32
Clc1cc(Cl)c(Cl)cc1Cl	5	5.83
CC(=O)c1ccccc1	2.54	2.87
CCCCOC(=O)CCC	3.52	4.09
CCCCCCCCCC(C)=O	4.54	5.05
O=Cc1cc(Cl)ccc1O	4.01	5.31
CC=NO	1.39	2.89

SMILES	48 h IGC50 (-log10 mol/L) (Tetrahymena pyriformis)	96 h LC50 (-log10 mol/L) (Pimephales promelas)
Cc1ccccn1	1.99	2.02
CCC(C)(C)c1ccc(O)cc1	4.23	4.8
OCC(Cl)(Cl)Cl	2.54	2.82
Cc1ccc(C)c(O)c1C	3.28	4.22
Oc1ccc(Cl)cc1Cc1cc(Cl)ccc1O	6.09	5.94
CCCC=O	2.62	3.65
CCC(C)=O	1.25	1.35
CCCCCCCBr	4.49	5.09
CCC#N	1.03	1.56
Cc1ccc(C)c(C)c1	3.78	4.19
CCc1ccccn1	2.13	2.41
Brc1nc(Br)c(Br)[nH]1	4.43	4.7
N#CCCl	3.85	4.75
COC(=O)c1ccc(Cl)cc1	3.42	4.16
O=[N+]([O-])c1cccc(Cl)c1	3.73	3.93
C/C=C/C=O	4.06	4.92
Oc1ccc(Oc2ccccc2)cc1	4.36	4.58
CCCCC(CC)CO (stereo not drawn)	3.17	3.66
CC(C)CC=O	2.67	4.42
Oc1cccnc1Br	3.15	2.57
O=[N+]([O-])c1ncccc1O	3.87	2.92
Nc1ccc(Br)cc1	4.01	3.56

SMILES	48 h IGC50 (-log10 mol/L) (Tetrahymena pyriformis)	96 h LC50 (-log10 mol/L) (Pimephales promelas)
CCNCc1ccccc1	3.22	3.37
CCCOC(C)=O	1.76	3.23
CCCCCC(=O)OCC	3.06	4.21
O=[N+]([O-])c1cccc2ccccc12	4	4.53
c1ccoc1	1.35	3.05
Cc1c[nH]c2ccccc12	3.37	4.17
Cc1ccc([N+](=O)[O-])c(O)c1	3.59	3.51
CC(=O)c1cccn1C	2.31	2.9
Cc1cccc(Cl)n1	2.52	2.74
c1ccc2occc2c1	2.89	3.93
OCCCc1cccnc1	2.16	2.96
O/N=C/c1ccccc1O	3.25	4.63
Oc1ccc(Cl)cc1O	4.06	4.96
Cc1ccc(N)c([N+](=O)[O-])c1	3.37	3.79
CCCCOC(C)=O	2.51	3.81
COc1ccc(C(C)=O)c(O)c1	3.55	3.38
CC(=O)c1ccc(Cl)c(Cl)c1Cl	4.34	5.05
O=Cc1cccc([N+](=O)[O-])c1	3.11	4.42
CCN(CC)c1ccccc1	3.66	3.96
O=[N+]([O-])c1ccc(Oc2ccccc2)cc1	4.58	4.91
CN(C)c1ccc(/C=C/C=O)cc1	3.52	4.47
Cc1cccc(O)c1[N+](=O)[O-]	3.61	3.52

SMILES	48 h IGC50 (-log10 mol/L) (Tetrahymena pyriformis)	96 h LC50 (-log10 mol/L) (Pimephales promelas)
CC(C)O	1.12	0.778
CC(C)=NO	1.75	2.12
COc1cc(OC)c(OC)cc1C=O	2.9	3.6
O=Cc1ccc(Oc2ccccc2)cc1	4.26	4.63
Oc1cccnc1Cl	2.99	2.32
CCOC(=O)C(Cc1ccccc1)C(=O)OCC	3.71	4.66
CC(=O)Nc1cccc(O)c1	2.84	2.13
C#CCO	1.93	4.56
O=Cc1c(F)c(F)c(F)c(F)c1F	3.82	5.25
COC(=O)c1cc(Cl)ccc1Cl	3.81	4.17
Cc1ccc(C)o1	2.52	3.13
C=CCc1ccccc1O	3.33	3.98
N#Cc1cc(Cl)ccc1N	3.44	3.73
COCCN	1.21	2.16
c1ccc(-c2ccncc2)cc1	3.66	3.98
COC(=O)c1ccc([N+](=O)[O-])cc1	3.39	3.88
CCOC(=O)CCCCC(=O)OCC	2.87	4.05
CCOC(=O)CCCCCCCCC(=O)OCC	4.35	4.98
CC(=O)OC(C)(C)C	1.51	2.55
O=[N+]([O-])c1ccc(F)cc1	3.1	3.7
CCCCCCCC(C)=O	3.66	3.97
O=Cc1ccc([N+](=O)[O-])cc1	3.2	4.17

SMILES	48 h IGC50 (-log10 mol/L) (Tetrahymena pyriformis)	96 h LC50 (-log10 mol/L) (Pimephales promelas)
NCCN1CCNCC1	2.21	1.77
NC(=O)c1ccc(Cl)cc1Cl	2.64	3.3
N#Cc1ccccn1	2.17	2.16
CCOc1ccc(N)c([N+](=O)[O-])c1	3.76	3.85
CC(=O)C(C)(C)C	1.56	3.06
C=CCc1ccc(O)c(OC)c1	3.42	3.83
C#CC(C)(C)O	1.69	1.41
CCCCCCBr	3.94	4.68
CCOC(=O)CC(=O)OCC	2	4.02
CCCCCCC1CCC(=O)O1 (stereo not drawn)	3.49	3.98
C=CCC(O)C=C (stereo not drawn)	3.25	3.41
CCCCCCCCCCCC(C)=O	5.12	5.74
CC(=O)CC(C)C	1.79	2.27
CCCCCCCCC(C)=O	3.58	4.51
CC(=O)c1ccncc1	2.13	2.86
CCCCCCCCc1ccc(N)cc1	5.43	6.23
CCOc1ccc(C=O)cc1	3.07	3.74
Cc1cc([N+](=O)[O-])ccc1N	3.49	3.24
C=CCCl	2.06	3.55
N#CCC#N	3.22	5.07
ClC(Cl)(Cl)Cl	2.98	3.57
